In PubChem BioAssay AID330 (DTP/NCI, 2004):
Where “and” joins values, the source holds several entries; their conditions need not be identical. Identical values can stand only once. Toxic doses and inconclusive results are not listed. How the source made its calls: active means survival T/C of 150% or more; inactive means T/C below 125% in these data. Square brackets hold non-standard residues; d marks the D form. Peptide text beside a SMILES is read from it. * marks the point of attachment. Cbz = O=C(OCc1ccccc1)*; Nva = CCC[CH](N)C(=O)O

Test system: P388 leukemia ip, CD2F1 mice, survival T/C
Assay: NCI In Vivo Anticancer Drug Screen. Data for tumor model P388 Leukemia (intraperitoneal) in CD2F1 (CDF1) mice
Conditions: endpoint: median survival time, higher = longer survival
How it was run: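 Mice carrying the transplanted tumor received test compound or vehicle. Survival was recorded in each group, and the value is the treated-group measurement divided by that of the vehicle-treated control group.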

[1] = dose: 1.56 mg/kg/injection, schedule: Q01DX009 (ip), vehicle: Klucel (hydroxypropylcellulose) (HPC)
[2] = dose: 3.12 mg/kg/injection, schedule: Q01DX009 (ip), vehicle: Klucel (hydroxypropylcellulose) (HPC)
[3] = dose: 6.25 mg/kg/injection, schedule: Q01DX009 (ip), vehicle: Klucel (hydroxypropylcellulose) (HPC)
[4] = dose: 12.5 mg/kg/injection, schedule: Q01DX009 (ip), vehicle: Klucel (hydroxypropylcellulose) (HPC)
[5] = dose: 50.0 mg/kg/injection, schedule: Q01DX009 (ip), vehicle: Klucel (hydroxypropylcellulose) (HPC)
[6] = dose: 25.0 mg/kg/injection, schedule: Q01DX009 (ip), vehicle: Klucel (hydroxypropylcellulose) (HPC)
[7] = dose: 100.0 mg/kg/injection, schedule: Q01DX009 (ip), vehicle: Klucel (hydroxypropylcellulose) (HPC)
[8] = dose: 60.0 mg/kg/injection, schedule: Q01DX005 (ip), vehicle: saline with Tween-80
[9] = dose: 120.0 mg/kg/injection, schedule: Q01DX005 (ip), vehicle: saline with Tween-80
[10] = dose: 200.0 mg/kg/injection, schedule: Q01DX009 (ip), vehicle: Klucel (hydroxypropylcellulose) (HPC)
[11] = dose: 100.0 mg/kg/injection, schedule: Q01DX009 (ip), vehicle: saline with Tween-80
[12] = dose: 50.0 mg/kg/injection, schedule: Q01DX001 (ip), vehicle: saline
[13] = dose: 100.0 mg/kg/injection, schedule: Q01DX001 (ip), vehicle: saline

Measured: T/C

CCCCC(=O)NN(Cn1c(=S)sc2ccccc21)Cn1c(=S)sc2ccccc21
inactive: [1] 88 % of control | [2] 106 % of control and 88 % of control | [3] 100 % of control and 86 % of control and 93 % of control | [4] 90 % of control and 97 % of control | [5] 88 % of control and 91 % of control

CCCCCCCCCCCCCCCCCC[N+]1(CCC(C)C)CCSCC1
inactive: dose: 100.0 mg/kg/injection, schedule: Q01DX001 (ip), vehicle: saline with Tween-80 88 % of control | dose: 200.0 mg/kg/injection, schedule: Q01DX001 (ip), vehicle: saline with Tween-80 97 % of control

CCCCCCC/C=C/C(=O)OC1C(OC2C(OC(CCCCCCC)CC(=O)OC(CCCCCCC)CC(=O)O)OC(C)C(O)C2O)OC(C)C(O)C1O (stereo not drawn)
inactive: [4] 102 % of control and 89 % of control | [6] 98 % of control and 120 % of control and 87 % of control | [5] 120 % of control and 95 % of control (2×) | [7] 116 % of control

CCOC(=O)C(=O)Cc1nc2ccccc2nc1C
inactive: [8] 93 % of control | [9] 97 % of control

CC(CN1CCCCC1)NC(=O)c1scnc1-c1ccccc1 (stereo not drawn)
inactive: [8] 116 % of control | [9] 98 % of control

CCSc1nc2ccc(Nn3nnnc3-c3ccccc3)cc2s1
inactive: [1] 105 % of control and 94 % of control | [2] 99 % of control and 100 % of control | [3] 93 % of control | [4] 89 % of control and 95 % of control | [5] 93 % of control | [10] 92 % of control

O=c1ccc2ccccc2o1
inactive: dose: 3.12 mg/kg/injection, schedule: Q01DX009 (ip), vehicle: saline with Tween-80 101 % of control and 108 % of control and 94 % of control | dose: 6.25 mg/kg/injection, schedule: Q01DX009 (ip), vehicle: saline with Tween-80 100 % of control and 101 % of control and 110 % of control | dose: 12.5 mg/kg/injection, schedule: Q01DX009 (ip), vehicle: saline with Tween-80 103 % of control and 110 % of control (2×) | [6] 100 % of control and 105 % of control | dose: 25.0 mg/kg/injection, schedule: Q01DX009 (ip), vehicle: saline with Tween-80 100 % of control and 110 % of control and 120 % of control | dose: 25.0 mg/kg/injection, schedule: Q04HX002 (ip), vehicle: water 100 % of control | [5] 105 % of control and 106 % of control and 107 % of control | dose: 50.0 mg/kg/injection, schedule: Q04HX002 (ip), vehicle: water 104 % of control | [7] 102 % of control and 105 % of control and 108 % of control | [11] 103 % of control and 114 % of control | dose: 100.0 mg/kg/injection, schedule: Q04HX002 (ip), vehicle: saline with Tween-80 91 % of control | dose: 100.0 mg/kg/injection, schedule: Q04HX002 (ip), vehicle: water 100 % of control | [10] 119 % of control and 94 % of control | dose: 200.0 mg/kg/injection, schedule: Q04HX002 (ip), vehicle: saline with Tween-80 59 % of control | dose: 200.0 mg/kg/injection, schedule: Q04HX002 (ip), vehicle: water 101 % of control | dose: 400.0 mg/kg/injection, schedule: Q04HX002 (ip), vehicle: saline with Tween-80 46 % of control

Nc1ncnc2c1ccn2C1OC(CO)C(O)C1O (stereo not drawn)
inactive: dose: 0.44 mg/kg/injection, schedule: Q01DX001 (ip), vehicle: saline 120 % of control | dose: 0.5 mg/kg/injection, schedule: Q01DX009 (ip), vehicle: water 113 % of control | dose: 0.88 mg/kg/injection, schedule: Q01DX001 (ip), vehicle: saline 110 % of control | dose: 8.0 mg/kg/injection, schedule: Q01DX010 (sc), vehicle: saline 105 % of control | dose: 16.0 mg/kg/injection, schedule: Q01DX010 (sc), vehicle: saline 110 % of control | dose: 55.0 micrograms/kg/injection, schedule: Q07DX Z (ip), vehicle: saline 90 % of control | dose: 110.0 micrograms/kg/injection, schedule: Q07DX Z (ip), vehicle: saline 105 % of control | dose: 220.0 micrograms/kg/injection, schedule: Q07DX Z (ip), vehicle: saline 105 % of control | dose: 440.0 micrograms/kg/injection, schedule: Q07DX Z (ip), vehicle: saline 105 % of control

O=C(O)C(CO)NC(=O)C1CCCN1C(=O)OCc1ccccc1 (stereo not drawn) (Cbz-Pro-Ser-OH; configuration not given here)
inactive: dose: 50.0 mg/kg/injection, schedule: Q01DX005 (ip), vehicle: saline 96 % of control | dose: 100.0 mg/kg/injection, schedule: Q01DX005 (ip), vehicle: saline 93 % of control

Cc1ccc(S(=O)(=O)OCC(O)C(O)COS(=O)(=O)c2ccc(C)cc2)cc1 (stereo not drawn)
inactive: dose: 50.0 mg/kg/injection, schedule: Q01DX009 (ip), vehicle: saline 97 % of control | dose: 100.0 mg/kg/injection, schedule: Q01DX009 (ip), vehicle: saline 102 % of control and 113 % of control | dose: 200.0 mg/kg/injection, schedule: Q01DX009 (ip), vehicle: saline 101 % of control and 95 % of control

O=C(O)CCCc1ccccc1[N+](=O)[O-]
inactive: dose: 50.0 mg/kg/injection, schedule: Q01DX009 (ip), vehicle: saline with Tween-80 105 % of control | [11] 105 % of control | dose: 200.0 mg/kg/injection, schedule: Q01DX009 (ip), vehicle: saline with Tween-80 103 % of control | dose: 400.0 mg/kg/injection, schedule: Q01DX009 (ip), vehicle: saline with Tween-80 105 % of control

CCCCCCCCCCCCCCCCON
inactive: [5] 103 % of control | [7] 111 % of control

CC(=O)c1c[nH]c(=O)c2cc3c(cc12)OCO3
inactive: [8] 95 % of control | [9] 91 % of control

C=C(c1ccc(OC)cc1)c1cc(C(C)(C)C)c(O)c(C(C)(C)C)c1
inactive: dose: 50.0 mg/kg/injection, schedule: Q01DX005 (ip), vehicle: saline + Tween-80 + alcohol 101 % of control | dose: 100.0 mg/kg/injection, schedule: Q01DX005 (ip), vehicle: saline + Tween-80 + alcohol 97 % of control | dose: 200.0 mg/kg/injection, schedule: Q01DX005 (ip), vehicle: saline + Tween-80 + alcohol 100 % of control

COC(=O)n1c(=O)ccc(=O)n1C(=O)OC
inactive: [12] 100 % of control and 103 % of control | [13] 98 % of control and 100 % of control and 106 % of control | dose: 200.0 mg/kg/injection, schedule: Q01DX001 (ip), vehicle: saline 100 % of control and 106 % of control and 115 % of control | dose: 400.0 mg/kg/injection, schedule: Q01DX001 (ip), vehicle: saline 100 % of control and 112 % of control and 122 % of control

CCC1(CC)NC(=O)[C@H](C)N1S(C)(=O)=O
inactive: dose: 50.0 mg/kg/injection, schedule: Q01DX005 (ip), vehicle: saline with Tween-80 100 % of control | dose: 100.0 mg/kg/injection, schedule: Q01DX005 (ip), vehicle: saline with Tween-80 96 % of control | dose: 200.0 mg/kg/injection, schedule: Q01DX005 (ip), vehicle: saline with Tween-80 89 % of control

CCCC(NC(=O)OCc1ccccc1)C(=O)NC(Cc1ccc(O)cc1)C(=O)O (stereo not drawn) (Cbz-[Nva]-Tyr-OH; configuration not given here)
inactive: dose: 50.0 mg/kg/injection, schedule: Q01DX005 (ip), vehicle: Klucel (hydroxypropylcellulose) (HPC) 102 % of control | dose: 100.0 mg/kg/injection, schedule: Q01DX005 (ip), vehicle: Klucel (hydroxypropylcellulose) (HPC) 105 % of control | dose: 200.0 mg/kg/injection, schedule: Q01DX005 (ip), vehicle: Klucel (hydroxypropylcellulose) (HPC) 94 % of control

COc1ccc(C2CC(=O)N(c3ncccn3)C(=O)C2)cc1
inactive: dose: 100.0 mg/kg/injection, schedule: Q04DX003 (ip), vehicle: saline 103 % of control | dose: 200.0 mg/kg/injection, schedule: Q04DX003 (ip), vehicle: saline 94 % of control | dose: 400.0 mg/kg/injection, schedule: Q04DX003 (ip), vehicle: saline 102 % of control

ClC(Cl)=C(Cl)C(Cl)=C(Cl)Cl
inactive: [12] 108 % of control | [13] 100 % of control

CCOC(=O)/N=[N+](\[O-])c1ccc(Cl)cc1
inactive: dose: 100.0 mg/kg/injection, schedule: Q01DX001 (ip), vehicle: Klucel (hydroxypropylcellulose) (HPC) 100 % of control
